Columns and labels:
[1] = tested on: CBA-1 (DNA, aptamer) CCCCCTGGGTCGGGAGGGAAGGGGGTTGGGGGTGCGGG; experiment: UV melting at 265 nm; settings: 140 mM NaCl, 2.5 mM KCl, K/Na phosphate (PBS), 2.5 mM MgCl2; PBS with MgCl2, pH 7.4; 4 µM DNA, 8 µM codeine
[2] = tested on: CBA-1-3G3T (DNA, aptamer) CCCCCTTTTTCTTTATTTAAGGGGGTTGGGGGTGCTTT; experiment: ITC; settings: 140 mM NaCl, 2.5 mM KCl, K/Na phosphate (PBS), 2.5 mM MgCl2; PBS with MgCl2, pH 7.4, 25 °C; 250 µM codeine in syringe
[3] = tested on: CBA-1-A14AP (DNA, aptamer, 2-aminopurine at 14) CCCCCTGGGTCGGGAGGGAAGGGGGTTGGGGGTGCGGG; experiment: 2-aminopurine fluorescence quenching; settings: 140 mM NaCl, 2.5 mM KCl, K/Na phosphate (PBS), 2.5 mM MgCl2; 1 µM codeine, 25 °C
[4] = tested on: CBA-1-strand1 (DNA, aptamer) AAAAATGGGTCGGGAGGGAAGGGGGTTGGGGGTGCGGG; experiment: ITC; settings: 140 mM NaCl, 2.5 mM KCl, K/Na phosphate (PBS), 2.5 mM MgCl2; PBS with MgCl2, pH 7.4, 25 °C; 250 µM codeine in syringe
[5] = tested on: CBA-1-strand3 (DNA, aptamer) CCCCCTGGGTCGGGAGGGAAGGGGGTTTATATTGCGGG; experiment: ITC; settings: 140 mM NaCl, 2.5 mM KCl, K/Na phosphate (PBS), 2.5 mM MgCl2; PBS with MgCl2, pH 7.4, 25 °C; 250 µM codeine in syringe
[6] = tested on: CBA-1-A20AP (DNA, aptamer, 2-aminopurine at 20) CCCCCTGGGTCGGGAGGGAAGGGGGTTGGGGGTGCGGG; experiment: 2-aminopurine fluorescence quenching; settings: 140 mM NaCl, 2.5 mM KCl, K/Na phosphate (PBS), 2.5 mM MgCl2; 1 µM codeine, 25 °C
[7] = tested on: CBA-1-strand21 (DNA, aptamer) GGGGGTGGGTCGGGAGGGAACCCCCTTGGGGGTGCGGG; experiment: ITC; settings: 140 mM NaCl, 2.5 mM KCl, K/Na phosphate (PBS), 2.5 mM MgCl2; PBS with MgCl2, pH 7.4, 25 °C; 250 µM codeine in syringe
[8] = tested on: CBA-0 (DNA, aptamer) CCCCCTGGGTCGGGAGGGAAGGGGGTTGGGGGTGCGG; experiment: ITC; settings: 140 mM NaCl, 2.5 mM KCl, K/Na phosphate (PBS), 2.5 mM MgCl2; PBS with MgCl2, pH 7.4, 25 °C
[9] = tested on: CBA-1-G34R (DNA, aptamer) CCCCCTGGGTCGGGAGGGAAGGGGGTTGGGGGTCGGG; experiment: ITC; settings: 140 mM NaCl, 2.5 mM KCl, K/Na phosphate (PBS), 2.5 mM MgCl2; PBS with MgCl2, pH 7.4, 25 °C; 250 µM codeine in syringe
[10] = tested on: CBA-1-1/CBA-1-2 (DNA, aptamer) CCCCCTGGGTCGGGAGGGAAGGGGGT/TGGGGGTGCGGG; experiment: UV melting at 265 nm; settings: 140 mM NaCl, 2.5 mM KCl, K/Na phosphate (PBS), 2.5 mM MgCl2; PBS with MgCl2, pH 7.4
[11] = tested on: CBA-1-1/CBA-1-2 (DNA, aptamer) CCCCCTGGGTCGGGAGGGAAGGGGGT/TGGGGGTGCGGG; experiment: 1H NMR; settings: 140 mM NaCl, 2.5 mM KCl, K/Na phosphate (PBS), 10% D2O, 25 °C, 200 µM DNA, 400 µM codeine
[12] = tested on: CBA-1-G34C35R (DNA, aptamer) CCCCCTGGGTCGGGAGGGAAGGGGGTTGGGGGTGGG; experiment: ITC; settings: 140 mM NaCl, 2.5 mM KCl, K/Na phosphate (PBS), 2.5 mM MgCl2; PBS with MgCl2, pH 7.4, 25 °C; 250 µM codeine in syringe
[13] = tested on: CBA-1 (DNA, aptamer) CCCCCTGGGTCGGGAGGGAAGGGGGTTGGGGGTGCGGG; experiment: ITC; settings: 140 mM NaCl, 2.5 mM KCl, K/Na phosphate (PBS), 2.5 mM MgCl2; PBS with MgCl2, pH 7.4, 25 °C
[14] = tested on: CBA-1-AAT (DNA, aptamer) TTTCCCCCTGGGTCGGGAGGGAAGGGGGAAATTAAAGGGGGTGCGGG; experiment: ITC; settings: 140 mM NaCl, 2.5 mM KCl, K/Na phosphate (PBS), 2.5 mM MgCl2; PBS with MgCl2, pH 7.4, 25 °C
[15] = tested on: CBA-1-GGC-4G4 (DNA, aptamer) CCCCCCCCTGGGGTCGGGGAGGGGAAGGGGGGGGTTGGGGGGGGTGCGGGG; experiment: ITC; settings: 140 mM NaCl, 2.5 mM KCl, K/Na phosphate (PBS), 2.5 mM MgCl2; PBS with MgCl2, pH 7.4, 25 °C
[16] = tested on: CBA-1-G34T (DNA, aptamer) CCCCCTGGGTCGGGAGGGAAGGGGGTTGGGGGTTCGGG; experiment: ITC; settings: 140 mM NaCl, 2.5 mM KCl, K/Na phosphate (PBS), 2.5 mM MgCl2; PBS with MgCl2, pH 7.4, 25 °C
[17] = tested on: CBA-1-G14A (DNA, aptamer) CCCCCTGGGTCGGAAGGGAAGGGGGTTGGGGGTGCGGG; experiment: ITC; settings: 140 mM NaCl, 2.5 mM KCl, K/Na phosphate (PBS), 2.5 mM MgCl2; PBS with MgCl2, pH 7.4, 25 °C
[18] = tested on: CBA-1-A15AP (DNA, aptamer, 2-aminopurine at 15) CCCCCTGGGTCGGGAGGGAAGGGGGTTGGGGGTGCGGG; experiment: 2-aminopurine fluorescence quenching; settings: 140 mM NaCl, 2.5 mM KCl, K/Na phosphate (PBS), 2.5 mM MgCl2; 1 µM codeine, 25 °C
[19] = tested on: CBA-1-GGC (DNA, aptamer) CCCCCCCCTGGGTCGGGAGGGAAGGGGGGGGTTGGGGGGGGTGCGGG; experiment: ITC; settings: 140 mM NaCl, 2.5 mM KCl, K/Na phosphate (PBS), 2.5 mM MgCl2; PBS with MgCl2, pH 7.4, 25 °C
[20] = tested on: FAM-labeled CBA-1 (DNA, aptamer) CCCCCTGGGTCGGGAGGGAAGGGGGTTGGGGGTGCGGG; experiment: DMS footprinting; settings: 140 mM NaCl, 2.5 mM KCl, K/Na phosphate (PBS), 2.5 mM MgCl2; binding buffer, room temperature
[21] = tested on: FAM-labeled CBA-0 (DNA, aptamer) CCCCCTGGGTCGGGAGGGAAGGGGGTTGGGGGTGCGG; experiment: DMS footprinting; settings: 140 mM NaCl, 2.5 mM KCl, K/Na phosphate (PBS), 2.5 mM MgCl2; binding buffer, room temperature

SMILES: COc1ccc2c3c1O[C@H]1[C@@H](O)C=C[C@H]4[C@@H](C2)N(C)CC[C@@]341
- binding [1]: yes
- binding [2]: no
- binding [3]: yes
- binding [4]: no
- binding [5]: no
- binding [6]: yes
- binding [7]: no
- Kd [8]: 250 ± 80 nM
- binding [9]: no
- ∆Tm [10]: ~ 4 °C
- binding [11]: yes
- binding [12]: no
- Kd [13]: 70 ± 10 nM
- Kd [14]: 70 ± 30 nM
- Kd [15]: 300 ± 170 nM
- binding [16]: weak
- binding [17]: yes
- binding [18]: yes
- Kd [19]: 50 ± 20 nM
- binding [20]: yes
- binding [21]: yes
